Test results reported in BigSolDB 2.1.

O=S(=O)([O-])c1cccc2c(S(=O)(=O)[O-])cccc12.[Na+].[Na+]
solubility (mole fraction)
Conditions	in acetone	in ethanol	in isopropanol	in methanol	in water
283.15 K	5.45e-05	0.000107	2.55e-05	0.00017	0.00572
293.15 K	5.92e-05	0.00011	5.68e-05	0.000221	0.00664
303.15 K	7.41e-05	0.00011	6.45e-05	0.000251	0.00784
313.15 K	9.49e-05	0.000147	8.74e-05	0.00027	0.00919
323.15 K	9.73e-05	0.000184	9.19e-05	0.00028	0.0106
